Where no end group is shown, it is not given here.
Experiments:
[1] = test system: E. coli KCTC1682; format: cell-based, Escherichia coli; conditions: KCTC1682, 16 h
[2] = test system: E. coli KCTC2593; format: cell-based, Escherichia coli; conditions: KCTC2593, 16 h
[3] = test system: E.coli KCTC2571; format: cell-based, Escherichia coli; conditions: KCTC2571, 16 h
[4] = test system: P. aeruginosa KCTC1637; format: cell-based, Pseudomonas aeruginosa; conditions: KCTC1637, 16 h
[5] = test system: P. aeruginosa KCTC2004; format: cell-based, Pseudomonas aeruginosa; conditions: KCTC2004, 16 h
[6] = test system: P. aeruginosa KCTC2513; format: cell-based, Pseudomonas aeruginosa; conditions: KCTC2513, 16 h
[7] = test system: S. typhimurium KCTC1926; format: cell-based, Salmonella typhimurium; conditions: KCTC1926, 16 h
[8] = test system: B. subtilis KCTC3068; format: cell-based, Bacillus subtilis; conditions: KCTC3068, 16 h
[9] = test system: B. subtilis KCTC1021; format: cell-based, Bacillus subtilis; conditions: KCTC1021, 16 h
[10] = test system: B. subtilis KCTC1022; format: cell-based, Bacillus subtilis; conditions: KCTC1022, 16 h
[11] = test system: S. epidermidis KCTC1917; format: cell-based, Staphylococcus epidermidis; conditions: KCTC1917, 16 h
[12] = test system: S. aureus KCTC1621; format: cell-based, Staphylococcus aureus; conditions: KCTC1621, 16 h
[13] = test system: S. aureus KCTC1916; format: cell-based, Staphylococcus aureus; conditions: KCTC1916, 16 h
[14] = test system: S. aureus KCTC3881; format: cell-based, Staphylococcus aureus; conditions: KCTC3881, 16 h
[15] = test system: MRSA CCARM3089; format: cell-based, Methicillin-resistant S. aureus; conditions: CCARM3089, 16 h
[16] = test system: MRSA CCARM 3090; format: cell-based, Methicillin-resistant S. aureus; conditions: CCARM 3090, 16 h
[17] = test system: MRSA CCARM 3108; format: cell-based, Methicillin-resistant S. aureus; conditions: CCARM 3108, 16 h
[18] = test system: MRSA CCARM 3114; format: cell-based, Methicillin-resistant S. aureus; conditions: CCARM 3114, 16 h
[19] = test system: MRSA CCARM 3126; format: cell-based, Methicillin-resistant S. aureus; conditions: CCARM 3126, 16 h
[20] = test system: MDRST CCARM 8003; format: cell-based, multidrug-resistant S. typhimurium; conditions: broth microdilution, 37°C, 16 h, three independent experiments in triplicate, SD 14.0%
[21] = test system: MDRST CCARM 8007; format: cell-based, multidrug-resistant S. typhimurium; conditions: broth microdilution, 37°C, 16 h, three independent experiments in triplicate, SD 14.0%
[22] = test system: MDRST CCARM 8009; format: cell-based, multidrug-resistant S. typhimurium; conditions: broth microdilution, 37°C, 16 h, three independent experiments in triplicate, SD 14.0%
[23] = test system: MDREC CCARM 1229; format: cell-based, multidrug-resistant E. coli; conditions: broth microdilution, 37°C, 16 h, three independent experiments in triplicate, SD 14.0%
[24] = test system: MDREC CCARM 1238; format: cell-based, multidrug-resistant E. coli; conditions: broth microdilution, 37°C, 16 h, three independent experiments in triplicate, SD 14.0%
[25] = test system: MDRAB CCARM 12005; format: cell-based, multidrug-resistant Acinetobacter baumanii; conditions: broth microdilution, 37°C, 16 h, three independent experiments in triplicate, SD 14.0%
[26] = test system: MDRAB CCARM 12035; format: cell-based, multidrug-resistant Acinetobacter baumanii; conditions: broth microdilution, 37°C, 16 h, three independent experiments in triplicate, SD 14.0%
[27] = test system: MDRAB CCARM 12036; format: cell-based, multidrug-resistant Acinetobacter baumanii; conditions: broth microdilution, 37°C, 16 h, three independent experiments in triplicate, SD 14.0%
[28] = test system: MDRAB CCARM 12037; format: cell-based, multidrug-resistant Acinetobacter baumanii; conditions: broth microdilution, 37°C, 16 h, three independent experiments in triplicate, SD 14.0%
[29] = test system: MDRPA CCARM 2002; format: cell-based, multidrug-resistant P. aeruginosa; conditions: broth microdilution, 37°C, 16 h, three independent experiments in triplicate, SD 14.0%
[30] = test system: MDRPA CCARM 2003; format: cell-based, multidrug-resistant P. aeruginosa; conditions: broth microdilution, 37°C, 16 h, three independent experiments in triplicate, SD 14.0%
[31] = test system: MDRPA CCARM 2095; format: cell-based, multidrug-resistant P. aeruginosa; conditions: broth microdilution, 37°C, 16 h, three independent experiments in triplicate, SD 14.0%
[32] = test system: MDRPA CCARM 2163; format: cell-based, multidrug-resistant P. aeruginosa; conditions: broth microdilution, 37°C, 16 h, three independent experiments in triplicate, SD 14.0%
[33] = test system: Standard bacterial strains; format: cell-based; conditions: average over the 14 standard bacterial strains of Table 2
[34] = test system: Drug-resistant bacterial strains; conditions: average over the 18 drug-resistant bacterial strains of Table 3
Description: Escherichia coli KCTC 1682, E. coli KCTC 2593, E. coli KCTC 2571, Salmonella typhimurium KCTC 1926, Pseudomonas aeruginosa KCTC 1637, P. aeruginosa KCTC 2004, P. aeruginosa KCTC 2513, Bacillus subtilis KCTC 3068, B. subtilis KCTC 1021, B. subtilis KCTC 1022, Staphylococcus epidermidis KCTC 1917, Staphylococcus aureus KCTC 1621, S. aureus KCTC 1916, and S. aureus KCTC 3881 were purchased from the Korean Collection for Type Cultures, Korea Research Institute of Bioscience & Biotechnology (Taejon, Korea). Methicillin-resistant S. aureus (MRSA) (CCARM 3089, CCARM 3090, CCARM 3108, CCARM 3114, and CCARM 3126), multidrug-resistant E. coli (MDREC) (CCARM 1229 and CCARM 1238), multidrug-resistant S. typhimurium (MDRST) (CCARM 8003, CCARM 8007, and CCARM 8009), multidrug-resistant Acinetobacter baumanii (MDRAB) (CCARM 12005, CCARM 12035, CCARM 12036, CCARM 12037), and multidrug-resistant P. aeruginosa (MDRPA) (CCARM 2002, CCARM 2003, CCARM 2095, and CCARM 2163) were obtained from the Culture Collection of Antibiotic-Resistant Microbes (CCARM) at Seoul Women’s University in Korea. The antimicrobial activities of the peptides against selected organisms, including three Gram-positive, three Gram-negative, and five antibiotic-resistant bacteria, were determined using a broth microdilution assay. Briefly, single colonies of bacteria and fungi were inoculated into Luria-Bertani (LB) medium and cultured overnight at 37°C. An aliquot of the culture was transferred to 10 mL of fresh LB and incubated for an additional 3–5 h at 37°C until it reached the mid-logarithmic phase. Two-fold serial dilutions of the peptides in 1% peptone were prepared. The serial dilutions (100 µL) were added to 100 µL of cells (2×10^6 colony-forming units (CFU)/mL) in 96-well microtiter plates and incubated at 37°C for 16 h. […] MIC values were calculated as the average of triplicate measurements from three independent assays.

Sequence	MIC [1]	MIC [2]	MIC [3]	MIC [4]	MIC [5]	MIC [6]	MIC [7]	MIC [8]	MIC [9]	MIC [10]	MIC [11]	MIC [12]	MIC [13]	MIC [14]	MIC [15]	MIC [16]	MIC [17]	MIC [18]	MIC [19]	MIC [20]	further results
FKHHIFRGIKHVGKTIHRLVTG [Pis-F2K/V10K]	1.0 µM	4.0 µM	4.0 µM	1.0 µM	8.0 µM	8.0 µM	2.0 µM	2.0 µM	8.0 µM	4.0 µM	4.0 µM	2.0 µM	4.0 µM	4.0 µM	8.0 µM	8.0 µM	8.0 µM	8.0 µM	8.0 µM	16 µM	MIC [21]: 8.0 µM; MIC [22]: 8.0 µM; MIC [23]: 8.0 µM; MIC [24]: 8.0 µM; MIC [25]: 2.0 µM; MIC [26]: 2.0 µM; MIC [27]: 2.0 µM; MIC [28]: 2.0 µM; MIC [29]: 2.0 µM; MIC [30]: 2.0 µM; MIC [31]: 2.0 µM; MIC [32]: 2.0 µM; Average MIC [33]: 4.0 µM; Average MIC [34]: 5.8 µM
FFHHIARGIVHVGKTIHRLVTG [Pis-F6A]	2.0 µM	2.0 µM	4.0 µM	4.0 µM	8.0 µM	16 µM	16 µM	4.0 µM	16 µM	2.0 µM	4.0 µM	4.0 µM	2.0 µM	4.0 µM	32 µM	32 µM	16 µM	16 µM	16 µM	32 µM	MIC [21]: 16 µM; MIC [22]: 16 µM; MIC [23]: 32 µM; MIC [24]: 32 µM; MIC [25]: 4.0 µM; MIC [26]: 4.0 µM; MIC [27]: 4.0 µM; MIC [28]: 4.0 µM; MIC [29]: 4.0 µM; MIC [30]: 4.0 µM; MIC [31]: 4.0 µM; MIC [32]: 4.0 µM; Average MIC [33]: 6.3 µM; Average MIC [34]: 15 µM
AFHHIFRGIVHVGKTIHRLVTG [Pis-F1A]	2.0 µM	2.0 µM	2.0 µM	4.0 µM	4.0 µM	8.0 µM	8.0 µM	4.0 µM	4.0 µM	1.0 µM	2.0 µM	1.0 µM	1.0 µM	2.0 µM	8.0 µM	8.0 µM	8.0 µM	8.0 µM	8.0 µM	8.0 µM	MIC [21]: 8.0 µM; MIC [22]: 8.0 µM; MIC [23]: 8.0 µM; MIC [24]: 8.0 µM; MIC [25]: 2.0 µM; MIC [26]: 2.0 µM; MIC [27]: 2.0 µM; MIC [28]: 2.0 µM; MIC [29]: 2.0 µM; MIC [30]: 2.0 µM; MIC [31]: 2.0 µM; MIC [32]: 2.0 µM; Average MIC [33]: 3.2 µM; Average MIC [34]: 5.3 µM
KFHHIFRGIKHVGKTIHRLVTG [Pis-F1K/V10K]	1.0 µM	2.0 µM	2.0 µM	1.0 µM	2.0 µM	2.0 µM	1.0 µM	1.0 µM	4.0 µM	2.0 µM	1.0 µM	2.0 µM	2.0 µM	2.0 µM	4.0 µM	4.0 µM	4.0 µM	8.0 µM	4.0 µM	8.0 µM	MIC [21]: 8.0 µM; MIC [22]: 8.0 µM; MIC [23]: 4.0 µM; MIC [24]: 4.0 µM; MIC [25]: 2.0 µM; MIC [26]: 2.0 µM; MIC [27]: 2.0 µM; MIC [28]: 2.0 µM; MIC [29]: 2.0 µM; MIC [30]: 2.0 µM; MIC [31]: 2.0 µM; MIC [32]: 2.0 µM; Average MIC [33]: 1.8 µM; Average MIC [34]: 4.0 µM
FFHHIKRGIKHVGKTIHRLVTG [Pis-F6K/V10K]	2.0 µM	4.0 µM	4.0 µM	4.0 µM	8.0 µM	8.0 µM	8.0 µM	4.0 µM	8.0 µM	4.0 µM	4.0 µM	4.0 µM	4.0 µM	4.0 µM	8.0 µM	8.0 µM	8.0 µM	8.0 µM	8.0 µM	16 µM	MIC [21]: 8.0 µM; MIC [22]: 8.0 µM; MIC [23]: 8.0 µM; MIC [24]: 8.0 µM; MIC [25]: 4.0 µM; MIC [26]: 4.0 µM; MIC [27]: 4.0 µM; MIC [28]: 4.0 µM; MIC [29]: 4.0 µM; MIC [30]: 4.0 µM; MIC [31]: 2.0 µM; MIC [32]: 2.0 µM; Average MIC [33]: 5.0 µM; Average MIC [34]: 6.4 µM

Reference: PMC4256409, “Role of Phenylalanine and Valine^10 Residues in the Antimicrobial Activity and Cytotoxicity of Piscidin-1” (PLoS ONE, 2014)
